Assay results from patent publication US12390537B2, “Compositions of polymeric microdevices and methods of use thereof in cancer immunotherapy” (Massachusetts Institute of Technology, priority 2020, dated 2025).

Columns and labels:
B16F10 melanoma tumors = experiment: Treatment of B16F10 melanoma tumors; format: in vivo, mice; conditions: single injection of high-dose cGAMP-S (40 μg) and EP
Description: 2×10^5 4 T1 or 2×10^5 B16F10 cells were subcutaneously injected to the right rear flank of BALB/c mice or C57BL/6 female mice respectively. For orthotopic 4T1 model, 2×10^5 4 T1 cells were injected into the mammary fat pad. Seven days after tumor injection, B16F10 tumor-bearing mice were divided into 6 experimental groups (n=8 for each group): untreated, 1×empty microdevices(EP), 1×cGAMP-S plus EPs, 1×collagen gel, 4×cGAMP-S, and 1×cGAMP-S plus cGAMP-MPs, respectively (FIG. 3D). For the 4×cGAMP-S group, mice were intratumorally administered with 10 μg of cGAMP in 50 μL MC solution (cGAMP-S) at days 0, 4, 8, and 11 to replicate the four doses of soluble cGAMP. The overall does of cGAMP were 40 μg per mouse throughout the treatment period. […] Tumor size was measured every other day starting at day 7 post tumor inoculation with a digital caliper. Tumor volume was calculated using the following formula: length (mm)×width^2 (mm)×0.5. […]
Mice bearing B16F10 tumors were treated with the following 4 experimental groups (n=8): untreated, 1×EPs, 3×cGAMP-S, and 1×cGAMP-S plus cGAMP-MPs, respectively (FIG. 4A). […] The protein content in the supernatant was quantified using a bicinchoninic acid protein assay kit (Thermo Fisher Scientific, MA, USA). […]

IFNγ+CD8+ T cells = experiment: Flow cytometry of IFNγ+CD8+ T cells in serum, B16F10 model; format: in vivo, mice
Description: To stain the intracellular marker, e.g., IFN-γ, cells were pre-stimulated with cell stimulation cocktail (eBioscience, cat. no. 00-4970-93) for 4-6 h, fixed and permeabilized using fixation/permeabilization solution kit (BD, cat. no. 554714), and then stained with both anti-IFN-γ and other surface antibodies. […] Flow cytometry data were acquired on an LSRFortessa cell analyzer (BD) and analyzed using FlowJo software.
To study whether activation of STING in the TME triggers systemic antitumor immunity, mouse serum was collected from the antitumor efficacy study of B16F10 melanoma model (FIG. 3D) 21 and 28 days after tumor inoculation and analyzed by flow cytometry. cGAMP-MPs and 4×cGAMP-S treatments increased 5.1- and 4.9-fold of IFNγ+CD8+ T cells in serum at day 21 compared to the untreated group (FIG. 5A). […]

Nc1nc2c(ncn2[C@@H]2O[C@@H]3COP(=O)(O)O[C@H]4[C@@H](O)[C@H](n5cnc6c(N)ncnc65)O[C@@H]4COP(=O)(O)O[C@H]3[C@H]2O)c(=O)[nH]1 [cGAMP-S, 3′3′-cGAMP]
tumor growth (B16F10 melanoma tumors): exhibited an antitumor effect at early time points but failed to achieve sustained tumor inhibition
survival time (B16F10 melanoma tumors; untreated 21 days): 25 days
increase of IFNγ+CD8+ T cells in serum compared to untreated (IFNγ+CD8+ T cells; day 21, cGAMP-MPs single injection, cGAMP-S four injections): 4.9 fold
number of IFNγ+CD8+ T cells in serum (IFNγ+CD8+ T cells; day 28 versus day 21): remained at an identical level
